The results in this text go back to ChEMBL document CHEMBL1132648, “Butenolide endothelin antagonists with improved aqueous solubility” (J Med Chem, 1999).

For this series the following is noted: buffer, pH 7.4.
Usually Aqueous solubility stands for the dissolved amount per volume that the medium holds. Higher therefore signals much dissolved substance. Take `COc1ccc(C(=O)/C(Cc2cc(OC)c(OC)c(OCCCC(=O)O)c2)=C(\C(=O)[O-])c2ccc3c(c2)OCO3)cc1.[Na+]`: the Aqueous solubility was above 250 ng/mL.
Compound `COc1ccc(C(=O)/C(Cc2cc(OC)c(OC)c(OC)c2)=C(\C(=O)[O-])c2ccc3c(c2)OCO3)cc1.[Na+]` [PD-156707 SODIUM] displayed an Aqueous solubility above 125 ng/mL.
The figure for `COc1ccc(C2(O)OC(=O)C(c3ccc4c(c3)OCO4)=C2Cc2cc(OC)c(OC)c(OC)c2)cc1` (stereo not drawn) [PD-156707] is below 0.01 ng/mL.
